Columns and labels:
Assay type in all cases: in vivo
[1] = tested on: redroot pigweed (Amaranthus retroflexus, AMARE); test: Pre-emerge test, greenhouse herbicide activity screening; details: pre-emerge, rated 14 days after application, 0 = no damage, 100 = complete death
Outline: (§1)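 Compounds in acetone were track-sprayed at 15-1000 g ai/ha (187 l/ha) on sandy loam pots: pre-emerge one day after seeding, post-emerge at 2-3 leaf stage with 0.25% v/v non-ionic surfactant. Phytotoxicity was rated 14 days later on a 0 (no damage) to 100 (complete death) scale.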

[2] = tested on: green foxtail (Setaria viridis, SETVI); test: as above; details: pre-emerge, rated 14 days after application, 0 = no damage, 100 = complete death
Outline: (§2)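 Visual ratings on a 0-100 scale (0 no damage, 100 all plants dead) were taken at 14 days after treatment. Rates of 15-1000 g ai/ha in acetone, 187 l/ha, were sprayed onto soil one day after planting (pre-emerge) or onto 2-3 leaf plants with 0.25% v/v surfactant (post-emerge).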

[3] = tested on: velvetleaf (Abutilon theophrasti, ABUTH); test: as above; details: pre-emerge, rated 14 days after application, 0 = no damage, 100 = complete death
Outline: as §2

[4] = tested on: lambsquarters (Chenopodium album, CHEAL); test: as above; details: pre-emerge, rated 14 days after application, 0 = no damage, 100 = complete death
Outline: as §2

[5] = tested on: sicklepod (Cassia obtusifolia, CASOB); test: as above; details: pre-emerge, rated 14 days after application, 0 = no damage, 100 = complete death
Outline: as §2

[6] = tested on: barnyardgrass (Echinochloa crus-galli, ECHCG); test: as above; details: pre-emerge, rated 14 days after application, 0 = no damage, 100 = complete death
Outline: as §2

[7] = tested on: johnsongrass (Sorghum halepense, SORHA); test: as above; details: pre-emerge, rated 14 days after application, 0 = no damage, 100 = complete death
Outline: as §2

[8] = tested on: common ragweed (Ambrosia artemisizfolia L., AMBEL); test: as above; details: pre-emerge, rated 14 days after application, 0 = no damage, 100 = complete death
Outline: as §2

[9] = tested on: large crabgrass (Digitaria sanguinalis, DIGSA); test: as above; details: pre-emerge, rated 14 days after application, 0 = no damage, 100 = complete death
Outline: as §2

[10] = tested on: ivyleaf morningglory (Ipomoea hederacea, IPOHE); test: as above; details: pre-emerge, rated 14 days after application, 0 = no damage, 100 = complete death
Outline: as §2

[11] = tested on: upland rice (Oryza sp., var. Tebonnet, RICE); test: Pre-emerge test, crop safety; details: pre-emerge, rated 14 days after application, 0 = no damage, 100 = complete death
Outline: (§3)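 Compounds in acetone were track-sprayed at 187 l/ha, 15–1000 g ai/ha, onto sandy loam pots. Pre-emerge seeds were sown one day before spraying, with surface watering afterwards. Post-emerge plants were at the 2–3 leaf stage and sprayed with 0.25% v/v non-ionic surfactant. Injury was rated 0–100 at 14 days.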

[12] = tested on: field corn (Zea mays L., var. Dekalb 535, CORN); test: Pre-emerge test, crop safety; details: pre-emerge, rated 14 days after application, 0 = no damage, 100 = complete death
Outline: as §3

[13] = tested on: upland rice (Oryza sp., var. Tebonnet, RICE); test: Post-emerge test, crop safety; details: phytotoxicity rating 0-100 (0 no damage, 100 complete death), 14 days after application
Outline: as §2

[14] = tested on: field corn (Zea mays L., var. Dekalb 535, CORN); test: Post-emerge test, crop safety; details: phytotoxicity rating 0-100 (0 no damage, 100 complete death), 14 days after application
Outline: as §2

[15] = tested on: green foxtail (Setaria viridis, SETVI); test: Post-emerge test, greenhouse herbicide activity screening; details: phytotoxicity rating 0-100 (0 no damage, 100 complete death), 14 days after application
Outline: as §1

[16] = tested on: velvetleaf (Abutilon theophrasti, ABUTH); test: as above; details: phytotoxicity rating 0-100 (0 no damage, 100 complete death), 14 days after application
Outline: as §1

[17] = tested on: lambsquarters (Chenopodium album, CHEAL); test: as above; details: phytotoxicity rating 0-100 (0 no damage, 100 complete death), 14 days after application
Outline: as §1

[18] = tested on: redroot pigweed (Amaranthus retroflexus, AMARE); test: as above; details: phytotoxicity rating 0-100 (0 no damage, 100 complete death), 14 days after application
Outline: as §1

[19] = tested on: sicklepod (Cassia obtusifolia, CASOB); test: as above; details: phytotoxicity rating 0-100 (0 no damage, 100 complete death), 14 days after application
Outline: as §1

[20] = tested on: barnyardgrass (Echinochloa crus-galli, ECHCG); test: as above; details: phytotoxicity rating 0-100 (0 no damage, 100 complete death), 14 days after application
Outline: as §1

[21] = tested on: johnsongrass (Sorghum halepense, SORHA); test: as above; details: phytotoxicity rating 0-100 (0 no damage, 100 complete death), 14 days after application
Outline: as §1

[22] = tested on: common ragweed (Ambrosia artemisizfolia L., AMBEL); test: as above; details: phytotoxicity rating 0-100 (0 no damage, 100 complete death), 14 days after application
Outline: as §1

[23] = tested on: large crabgrass (Digitaria sanguinalis, DIGSA); test: as above; details: phytotoxicity rating 0-100 (0 no damage, 100 complete death), 14 days after application
Outline: as §1

[24] = tested on: ivyleaf morningglory (Ipomoea hederacea, IPOHE); test: as above; details: phytotoxicity rating 0-100 (0 no damage, 100 complete death), 14 days after application
Outline: as §1

COc1c(Cl)cc(F)c(-n2c(=O)cc(C(F)(F)F)n(C)c2=O)c1N(C)C [Compound 1-11, 3-(4-chloro-2-dimehtylainino-6-fluoro-3-methoxyphenyl)-1-methyl-6-trifluoromethyl-2,4(1H, 3H)-pyrimidinedione]
Pre-emerge Herbicidal Activity AMARE (phytotoxicity rating, scale 0-100) ([1]; 63 g ai/ha): 100 | Pre-emerge Herbicidal Activity AMARE (phytotoxicity rating, scale 0-100) ([1]; 250 g ai/ha): 100 | Pre-emerge Herbicidal Activity SETVI (phytotoxicity rating, scale 0-100) ([2]; 63 g ai/ha): 80 | Pre-emerge Herbicidal Activity SETVI (phytotoxicity rating, scale 0-100) ([2]; 250 g ai/ha): 100 | Pre-emerge Herbicidal Activity ABUTH (phytotoxicity rating, scale 0-100) ([3]; 63 g ai/ha): 100 | Pre-emerge Herbicidal Activity ABUTH (phytotoxicity rating, scale 0-100) ([3]; 250 g ai/ha): 100 | Pre-emerge Herbicidal Activity CHEAL (phytotoxicity rating, scale 0-100) ([4]; 63 g ai/ha): 100 | Pre-emerge Herbicidal Activity CHEAL (phytotoxicity rating, scale 0-100) ([4]; 250 g ai/ha): 100 | Pre-emerge Herbicidal Activity CASOB (phytotoxicity rating, scale 0-100) ([5]; 63 g ai/ha): 20 | Pre-emerge Herbicidal Activity CASOB (phytotoxicity rating, scale 0-100) ([5]; 250 g ai/ha): 60 | Pre-emerge Herbicidal Activity ECHCG (phytotoxicity rating, scale 0-100) ([6]; 63 g ai/ha): 0 | Pre-emerge Herbicidal Activity ECHCG (phytotoxicity rating, scale 0-100) ([6]; 250 g ai/ha): 95 | Pre-emerge Herbicidal Activity SORHA (phytotoxicity rating, scale 0-100) ([7]; 63 g ai/ha): 90 | Pre-emerge Herbicidal Activity SORHA (phytotoxicity rating, scale 0-100) ([7]; 250 g ai/ha): 98 | Pre-emerge Herbicidal Activity AMBEL (phytotoxicity rating, scale 0-100) ([8]; 63 g ai/ha): 50 | Pre-emerge Herbicidal Activity AMBEL (phytotoxicity rating, scale 0-100) ([8]; 250 g ai/ha): 100 | Pre-emerge Herbicidal Activity DIGSA (phytotoxicity rating, scale 0-100) ([9]; 63 g ai/ha): 90 | Pre-emerge Herbicidal Activity DIGSA (phytotoxicity rating, scale 0-100) ([9]; 250 g ai/ha): 100 | Pre-emerge Herbicidal Activity IPOHE (phytotoxicity rating, scale 0-100) ([10]; 63 g ai/ha): 20 | Pre-emerge Herbicidal Activity IPOHE (phytotoxicity rating, scale 0-100) ([10]; 250 g ai/ha): 90 | Pre-emerge crop damage RICE (phytotoxicity rating, scale 0-100) ([11]; 63 g ai/ha): 20 | Pre-emerge crop damage RICE (phytotoxicity rating, scale 0-100) ([11]; 250 g ai/ha): 70 | Pre-emerge crop damage CORN (phytotoxicity rating, scale 0-100) ([12]; 63 g ai/ha): 0 | Pre-emerge crop damage CORN (phytotoxicity rating, scale 0-100) ([12]; 250 g ai/ha): 60 | Post-emerge Herbicidal Activity RICE (crop damage) ([13]; 63 g ai/ha): 0 | Post-emerge Herbicidal Activity RICE (crop damage) ([13]; 250 g ai/ha): 0 | Post-emerge Herbicidal Activity CORN (crop damage) ([14]; 63 g ai/ha): 0 | Post-emerge Herbicidal Activity CORN (crop damage) ([14]; 250 g ai/ha): 0 | Post-emerge Herbicidal Activity SETVI ([15]; 63 g ai/ha): 0 | Post-emerge Herbicidal Activity SETVI ([15]; 250 g ai/ha): 50 | Post-emerge Herbicidal Activity ABUTH ([16]; 63 g ai/ha): 70 | Post-emerge Herbicidal Activity ABUTH ([16]; 250 g ai/ha): 100 | Post-emerge Herbicidal Activity CHEAL ([17]; 63 g ai/ha): 50 | Post-emerge Herbicidal Activity CHEAL ([17]; 250 g ai/ha): 95 | Post-emerge Herbicidal Activity AMARE ([18]; 63 g ai/ha): 40 | Post-emerge Herbicidal Activity AMARE ([18]; 250 g ai/ha): 60 | Post-emerge Herbicidal Activity CASOB ([19]; 63 g ai/ha): 0 | Post-emerge Herbicidal Activity CASOB ([19]; 250 g ai/ha): 0 | Post-emerge Herbicidal Activity ECHCG ([20]; 63 g ai/ha): 0 | Post-emerge Herbicidal Activity ECHCG ([20]; 250 g ai/ha): 0 | Post-emerge Herbicidal Activity SORHA ([21]; 63 g ai/ha): 0 | Post-emerge Herbicidal Activity SORHA ([21]; 250 g ai/ha): 0 | Post-emerge Herbicidal Activity AMBEL ([22]; 63 g ai/ha): 10 | Post-emerge Herbicidal Activity AMBEL ([22]; 250 g ai/ha): 10 | Post-emerge Herbicidal Activity DIGSA ([23]; 63 g ai/ha): 0 | Post-emerge Herbicidal Activity DIGSA ([23]; 250 g ai/ha): 0 | Post-emerge Herbicidal Activity IPOHE ([24]; 63 g ai/ha): 40 | Post-emerge Herbicidal Activity IPOHE ([24]; 250 g ai/ha): 70

From patent US6355799B1, “Substituted benzene compounds, process for their preparation, and herbicidal and defoliant compositions containing them” (ISK Americas Incorporated, priority 1997, dated 2002)
